tested on: Madin Darby Canine Kidney (MDCK) cells; assay: cells; assay type: cell-based; settings: Canis lupus familiaris, MDCK, read-out: IC50 (toxicity)

| SMILES | IC50 [µM] |
| --- | --- |
| COc1ccc(C2NC(=O)NC3=C2CCc2ccccc23)cc1O (stereo not drawn) [compound 22407] | > 50 |
| COc1cc(C2NC(=O)NC3=C2CCc2ccccc23)ccc1O (stereo not drawn) [compound 22408] | > 50 |
| COc1ccc(C2NC(=O)NC3=C2CCc2ccccc23)c(OC)c1OC (stereo not drawn) [compound 22410] | > 50 |
| O=C1NC2=C(CCc3ccccc32)C(c2cccc3c2OCO3)N1 (stereo not drawn) [compound 22411] | > 50 |
| Oc1nc(-c2ccc3c(c2)OCO3)c2c(n1)-c1ccccc1OC2c1ccccc1 (stereo not drawn) [compound 22422] | > 50 |
| COc1cc(OC)cc(C2NC(=O)NC3=C2CCc2ccccc23)c1 (stereo not drawn) [compound 22518] | > 50 |
| COc1cc(C2NC(=O)NC3=C2CSc2ccccc23)ccc1F (stereo not drawn) [compound 22519] | > 50 |
| COc1ccc(C2NC(=O)NC3=C2CSc2ccccc23)cc1F (stereo not drawn) [compound 22523] | > 50 |
| O=C1NC2=C(CCc3ccccc32)C(c2cc(Br)c(O)c(Br)c2)N1 (stereo not drawn) [compound 22702] | > 40 |
| Cc1cc(C2NC(=O)NC3=C2CCc2ccccc23)cc(C)c1O (stereo not drawn) [compound 22705] | > 40 |
| COc1ccc(C2NC(=O)N(Cl)C3=C2CCc2ccccc23)cc1Br (stereo not drawn) [compound 22707] | > 50 |
| COc1ccc(C2NC(=O)N(O)C3=C2CCc2ccccc23)cc1Br (stereo not drawn) [compound 22708] | > 50 |
| COc1ccc(-c2nc(=O)[nH]c3c2CCc2ccccc2-3)cc1Br [compound 22710] | > 50 |
| COc1ccc(C2NC(=O)NC3=C2CNc2ccccc23)cc1Br (stereo not drawn) [compound 23100] | > 40 |
| COc1ccc(C2NC(=O)NC3=C2CN(C)c2ccccc23)cc1Br (stereo not drawn) [compound 23101] | > 40 |
| COc1ccc(C2NC(=O)NC3=C2CN(S(C)(=O)=O)c2ccccc23)cc1Br (stereo not drawn) [compound 23207] | > 40 |
| COc1ccc(C2NC(=O)NC3=C2CN(C(=O)c2ccncc2)c2ccccc23)cc1Br (stereo not drawn) [compound 23208] | > 40 |
| COc1ccc(C2NC(=O)Nc3c2cnc2ccccc32)cc1Br (stereo not drawn) [compound 23273] | > 40 |
| COc1ccc(C2NC(=O)NC3=C2CN(C(=O)CN)c2ccccc23)cc1Br (stereo not drawn) [compound 24716] | > 40 |
| CCN(CC)CC(=O)N1CC2=C(NC(=O)NC2c2ccc(OC)c(Br)c2)c2ccccc21 (stereo not drawn) [compound 24719] | > 40 |
| COc1ccc(C2NC(=O)NC3=C2CN(C(=O)C[n+]2ccccc2)c2ccccc23)cc1Br (stereo not drawn) [compound 25009] | > 40 |

same assay, conditions: read-out: IC50 (toxicity)

| SMILES | IC50 [µM] |
| --- | --- |
| Oc1nc(-c2ccc3c(c2)OCO3)c2c(n1)-c1ccccc1CC2 [compound 22122] | > 50 |
| COc1cccc2c1CCc1c(-c3ccc(C)cc3)nc(O)nc1-2 [compound 22124] | > 50 |

tested on: influenza strain A/VN/1203/2004 (H5N1); assay: microbe, parasite or virus in culture; assay type: cell-based, Influenza A virus (H5N1); settings: Influenza A virus, H5N1, MDCK, 72 h, read-out: H5N1 EC50 (@ 50% Via)

| SMILES | EC50 [µM] |
| --- | --- |
| COc1ccc(C2NC(=O)NC3=C2CCN(C(C)=O)c2ccccc23)cc1Br (stereo not drawn) [28000A] | > 20 |
| COc1ccc(C2NC(=O)NC3=C2CCN(C(=O)CO)c2ccccc23)cc1Br (stereo not drawn) [28001A] | > 20 |
| COc1ccc(C2NC(=O)NC3=C2CCN(C(=O)COC(C)=O)c2ccccc23)cc1Br (stereo not drawn) [28002A] | > 20 |
| COc1ccc(C2NC(=O)NC3=C2CCc2ccccc23)cc1O (stereo not drawn) [compound 22407] | > 50 |
| COc1cc(C2NC(=O)NC3=C2CCc2ccccc23)ccc1O (stereo not drawn) [compound 22408] | > 50 |
| COc1ccc(C2NC(=O)NC3=C2CCc2ccccc23)c(OC)c1OC (stereo not drawn) [compound 22410] | > 50 |
| O=C1NC2=C(CCc3ccccc32)C(c2cccc3c2OCO3)N1 (stereo not drawn) [compound 22411] | > 50 |
| Oc1nc(-c2ccc3c(c2)OCO3)c2c(n1)-c1ccccc1OC2c1ccccc1 (stereo not drawn) [compound 22422] | > 50 |
| COc1cc(OC)cc(C2NC(=O)NC3=C2CCc2ccccc23)c1 (stereo not drawn) [compound 22518] | 4.7 |
| COc1ccc(C2NC(=O)NC3=C2CSc2ccccc23)cc1F (stereo not drawn) [compound 22523] | 0.76 |
| O=C1NC2=C(CCc3ccccc32)C(c2cc(Br)c(O)c(Br)c2)N1 (stereo not drawn) [compound 22702] | > 40 |
| Cc1cc(C2NC(=O)NC3=C2CCc2ccccc23)cc(C)c1O (stereo not drawn) [compound 22705] | > 40 |
| COc1ccc(C2NC(=O)N(Cl)C3=C2CCc2ccccc23)cc1Br (stereo not drawn) [compound 22707] | 0.192 |
| COc1ccc(C2NC(=O)N(O)C3=C2CCc2ccccc23)cc1Br (stereo not drawn) [compound 22708] | 1.1 |
| COc1ccc(-c2nc(=O)[nH]c3c2CCc2ccccc2-3)cc1Br [compound 22710] | > 50 |
| COc1ccc(C2NC(=O)NC3=C2CNc2ccccc23)cc1Br (stereo not drawn) [compound 23100] | 0.637 |
| COc1ccc(C2NC(=O)NC3=C2CN(C)c2ccccc23)cc1Br (stereo not drawn) [compound 23101] | > 6 |
| COc1ccc(C2NC(=O)NC3=C2CN(S(C)(=O)=O)c2ccccc23)cc1Br (stereo not drawn) [compound 23207] | 29 |
| COc1ccc(C2NC(=O)NC3=C2CN(C(=O)c2ccncc2)c2ccccc23)cc1Br (stereo not drawn) [compound 23208] | > 40 |
| COc1ccc(C2NC(=O)Nc3c2cnc2ccccc32)cc1Br (stereo not drawn) [compound 23273] | 2.1 |
| COc1ccc(C2NC(=O)NC3=C2CN(C(=O)CN)c2ccccc23)cc1Br (stereo not drawn) [compound 24716] | 3.1 |
| CCN(CC)CC(=O)N1CC2=C(NC(=O)NC2c2ccc(OC)c(Br)c2)c2ccccc21 (stereo not drawn) [compound 24719] | 1.2 |
| COc1ccc(C2NC(=O)NC3=C2CN(C(=O)C[n+]2ccccc2)c2ccccc23)cc1Br (stereo not drawn) [compound 25009] | 7.1 |
| CCOC(=O)CCC(=O)N1CC2=C(NC(=O)NC2c2ccc(OC)c(Br)c2)c2ccccc21 (stereo not drawn) [compound 25484] | > 20 |
| COc1ccc(C2NC(=O)NC3=C2CN(C(=O)OCCO)c2ccccc23)cc1Br (stereo not drawn) [compound 25575] | 4.7 |
| COCCOC(=O)N1CC2=C(NC(=O)NC2c2ccc(OC)c(Br)c2)c2ccccc21 (stereo not drawn) [compound 25576] | > 20 |
| CCOC(=O)N1CC2=C(NC(=O)NC2c2ccc(OC)c(Br)c2)c2ccccc21 (stereo not drawn) [compound 25577] | > 20 |

same assay, conditions: Influenza A virus, H5N1, MDCK, 72 h, read-out: H5N1 EC50 (Inf Pt)

| SMILES | EC50 [µM] |
| --- | --- |
| Oc1nc(-c2ccc3c(c2)OCO3)c2c(n1)-c1ccccc1CC2 [compound 22122] | > 50 |
| COc1cccc2c1CCc1c(-c3ccc(C)cc3)nc(O)nc1-2 [compound 22124] | > 50 |
| COc1ccc(C2NC(=O)NC3=C2CCc2ccccc23)cc1O (stereo not drawn) [compound 22407] | > 50 |
| COc1cc(C2NC(=O)NC3=C2CCc2ccccc23)ccc1O (stereo not drawn) [compound 22408] | > 50 |
| COc1ccc(C2NC(=O)NC3=C2CCc2ccccc23)c(OC)c1OC (stereo not drawn) [compound 22410] | > 50 |
| O=C1NC2=C(CCc3ccccc32)C(c2cccc3c2OCO3)N1 (stereo not drawn) [compound 22411] | > 50 |
| Oc1nc(-c2ccc3c(c2)OCO3)c2c(n1)-c1ccccc1OC2c1ccccc1 (stereo not drawn) [compound 22422] | > 50 |
| COc1cc(OC)cc(C2NC(=O)NC3=C2CCc2ccccc23)c1 (stereo not drawn) [compound 22518] | 3.4 |
| COc1cc(C2NC(=O)NC3=C2CSc2ccccc23)ccc1F (stereo not drawn) [compound 22519] | 6.5 |
| COc1ccc(C2NC(=O)NC3=C2CSc2ccccc23)cc1F (stereo not drawn) [compound 22523] | 0.55 |
| O=C1NC2=C(CCc3ccccc32)C(c2cc(Br)c(O)c(Br)c2)N1 (stereo not drawn) [compound 22702] | > 40 |
| Cc1cc(C2NC(=O)NC3=C2CCc2ccccc23)cc(C)c1O (stereo not drawn) [compound 22705] | 10 |
| COc1ccc(C2NC(=O)N(Cl)C3=C2CCc2ccccc23)cc1Br (stereo not drawn) [compound 22707] | 0.186 |
| COc1ccc(C2NC(=O)N(O)C3=C2CCc2ccccc23)cc1Br (stereo not drawn) [compound 22708] | > 0.95 |
| COc1ccc(-c2nc(=O)[nH]c3c2CCc2ccccc2-3)cc1Br [compound 22710] | > 50 |
| COc1ccc(C2NC(=O)NC3=C2CNc2ccccc23)cc1Br (stereo not drawn) [compound 23100] | 0.718 |
| COc1ccc(C2NC(=O)NC3=C2CN(C)c2ccccc23)cc1Br (stereo not drawn) [compound 23101] | > 6 |
| COc1ccc(C2NC(=O)NC3=C2CN(S(C)(=O)=O)c2ccccc23)cc1Br (stereo not drawn) [compound 23207] | 31 |
| COc1ccc(C2NC(=O)NC3=C2CN(C(=O)c2ccncc2)c2ccccc23)cc1Br (stereo not drawn) [compound 23208] | > 40 |
| COc1ccc(C2NC(=O)Nc3c2cnc2ccccc32)cc1Br (stereo not drawn) [compound 23273] | 1.6 |
| COc1ccc(C2NC(=O)NC3=C2CN(C(=O)CN)c2ccccc23)cc1Br (stereo not drawn) [compound 24716] | 3.1 |
| CCN(CC)CC(=O)N1CC2=C(NC(=O)NC2c2ccc(OC)c(Br)c2)c2ccccc21 (stereo not drawn) [compound 24719] | 1.2 |
| COc1ccc(C2NC(=O)NC3=C2CN(C(=O)C[n+]2ccccc2)c2ccccc23)cc1Br (stereo not drawn) [compound 25009] | 7.1 |
| CCOC(=O)N1CC2=C(NC(=O)NC2c2ccc(OC)c(Br)c2)c2ccccc21 (stereo not drawn) [compound 25577] | > 20 |
| CCOC(=O)CCC(=O)N1CC2=C(NC(=O)NC2c2ccc(OC)c(Br)c2)c2ccccc21 (stereo not drawn) [compound 25578] | > 10 |

same assay, conditions: read-out: H5N1 EC50 (@ 50% Via)

| SMILES | EC50 [µM] |
| --- | --- |
| Oc1nc(-c2ccc3c(c2)OCO3)c2c(n1)-c1ccccc1CC2 [compound 22122] | > 50 |
| COc1cccc2c1CCc1c(-c3ccc(C)cc3)nc(O)nc1-2 [compound 22124] | > 50 |
| CCOC(=O)CCC(=O)N1CC2=C(NC(=O)NC2c2ccc(OC)c(Br)c2)c2ccccc21 (stereo not drawn) [compound 25578] | > 20 |

Reference: patent US20120040966A1, “ANTI-VIRAL COMPOUNDS, TREATMENT, AND ASSAY” (priority 2008, published 2012)
